Experimental data taken from the supplement of paper PMC11208160.

Experiment: recombinant barcode read abundance after kanamycin selection (control-corrected) (log10(CPM+1)); higher = more efficient recombination; sequences stand for … in AGTGCAGAGAAAATCGGCCAGTTTTCTCTGCCTGCAGTCCGCATGCCGT…AGATTTATGCAGCGGACTGCCTTTCTCCCAAAGTGATAAACCGGACAGTATCATGGACCGGTTTTCCCGGTAATCCGTATTTGCAAGGTTGGTTTCACT; site = the 11-nt target
In short: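 Each value is log10(CPM+1). It describes recombination efficiency, taken as averaged, control-corrected counts per million of barcodes at recombinant junctions. The pooled E. coli library paired targets with IS621 bridge RNA target-binding loops, was co-electroporated with a donor plasmid, and was plated twice on chloramphenicol/ampicillin LB agar (control) and twice on chloramphenicol/ampicillin/kanamycin containing 0.1 mM IPTG.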
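Also: IS621 recombinase and bridge RNA in Escherichia coli cells.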

Sequence	recombinant barcode read abundance (log10)
CTTCACCCTTGGGTTCTAACCTGTTGCCT (site CTTCAACCTAG)	0.134
CTTCACCCTTGGGTTCTAACCTGTTGCCT (site CTTCACCCTAG)	1.76
CTTCACCCTTGGGTTCTAACCTGTTGCCT (site CTTCAGCCTAG)	0.117
CTTCACCCTTGGGTTCTAACCTGTTGCCT (site CTTCATCCTAG)	0.00728
CTTCGAGCTTGGGTTCTAACCTGTTGCTG (site CTTCGAGCTCA)	1.52
CTTCGAGCTTGGGTTCTAACCTGTTGCTG (site CTTCGAGCTCC)	0.193
CTTCGAGCTTGGGTTCTAACCTGTTGCTG (site CTTCGAGCTCG)	0.184
CTTCGAGCTTGGGTTCTAACCTGTTGCTG (site CTTCGAGCTCT)	0.294
CTTCGCACTTGGGTTCTAACCTGTTGCCT (site CATCGCACTAG)	0.0381
CTTCGCACTTGGGTTCTAACCTGTTGCCT (site CCTCGCACTAG)	0.0814
CTTCGCACTTGGGTTCTAACCTGTTGCCT (site CGTCGCACTAG)	0.0111
CTTCGCACTTGGGTTCTAACCTGTTGCCT (site CTTCGCACTAG)	0.0708
CTTCGGGCTTGGGTTCTAACCTGTTGCAT (site CTTCGGGCTAT)	1.26
CTTCGGGCTTGGGTTCTAACCTGTTGCAT (site CTTTGAGCTAT)	0.242
CTTGCATCTTGGGTTCTAACCTGTTGCCT (site CTTGCATCTAG)	0.383
CTTGCATCTTGGGTTCTAACCTGTTGCCT (site GGGCACACTGT)	0.293
CTTGGAACTTGGGTTCTAACCTGTTGCCT (site CTTGGAACTAG)	0.224
CTTGGAACTTGGGTTCTAACCTGTTGCCT (site CTTGGACCTAG)	0.242
CTTGGAACTTGGGTTCTAACCTGTTGCCT (site CTTGGAGCTAG)	0
CTTGGAACTTGGGTTCTAACCTGTTGCCT (site CTTGGATCTAG)	0.228
CTTGGATCTTGGGTTCTAACCTGTTGCCT (site CTTGGAACTAG)	0.142
CTTGGATCTTGGGTTCTAACCTGTTGCCT (site CTTGGACCTAG)	0.116

Sequence	recombinant barcode read abundance (log10)
CTTGGATCTTGGGTTCTAACCTGTTGCCT (site CTTGGAGCTAG)	0.0716
CTTGGATCTTGGGTTCTAACCTGTTGCCT (site CTTGGATCTAG)	0.913
CTTGGGCCTTGGGTTCTAACCTGTTGCCT (site CATGGGCCTAG)	0.0436
CTTGGGCCTTGGGTTCTAACCTGTTGCCT (site CCTGGGCCTAG)	0.16
CTTGGGCCTTGGGTTCTAACCTGTTGCCT (site CGTGGGCCTAG)	0.186
CTTGGGCCTTGGGTTCTAACCTGTTGCCT (site CTTGGGCCTAG)	0.417
CTTTGAACTTGGGTTCTAACCTGTTGCTA (site CTTTGAACTTA)	0.016
CTTTGAACTTGGGTTCTAACCTGTTGCTA (site TCGATCCCTAC)	0.102
CTTTGGCCTTGGGTTCTAACCTGTTGCTT (site CCTTGGGCTAA)	0.439
CTTTGGCCTTGGGTTCTAACCTGTTGCTT (site CTTTGGCCTAA)	0.0961
CTTTGTGCTTGGGTTCTAACCTGTTGCCT (site CTTAGGGCTAG)	0.32
CTTTGTGCTTGGGTTCTAACCTGTTGCCT (site CTTTGTGCTAG)	0.129
GAAACTGCTTGGGTTCTAACCTGTTGCCT (site GAAACTGCTAG)	0.736
GAAACTGCTTGGGTTCTAACCTGTTGCCT (site GACACTGCTAG)	0.211
GAAACTGCTTGGGTTCTAACCTGTTGCCT (site GAGACTGCTAG)	0.158
GAAACTGCTTGGGTTCTAACCTGTTGCCT (site GATACTGCTAG)	0.0634
GAAAGCTCTTGGGTTCTAACCTGTTGCGT (site GAAAGCTCTAC)	2.99
GAAAGCTCTTGGGTTCTAACCTGTTGCGT (site TCCTATGCTCG)	0.0782
GAAAGTGCTTGGGTTCTAACCTGTTGCCT (site CAAAGTGCTAG)	0.0857
GAAAGTGCTTGGGTTCTAACCTGTTGCCT (site GAAAGTGCTAG)	1.23
GAAATAACTTGGGTTCTAACCTGTTGCGT (site AGCCCTCCTCT)	0.169
GAAATAACTTGGGTTCTAACCTGTTGCGT (site GAAATAACTAC)	0.995

Sequence	recombinant barcode read abundance (log10)
GAAATGTCTTGGGTTCTAACCTGTTGCCT (site GAAATGTCTAG)	1.75
GAAATGTCTTGGGTTCTAACCTGTTGCCT (site GCAATGTCTAG)	0.0338
GAAATGTCTTGGGTTCTAACCTGTTGCCT (site GGAATGTCTAG)	0.262
GAAATGTCTTGGGTTCTAACCTGTTGCCT (site GTAATGTCTAG)	0.634
GAACCTACTTGGGTTCTAACCTGTTGCGG (site GAACCTACTCC)	1.77
GAACCTACTTGGGTTCTAACCTGTTGCGG (site GAACCTACTTC)	0.107
GAAGACGCTTGGGTTCTAACCTGTTGCCT (site GAAGACGCTAG)	1.14
GAAGACGCTTGGGTTCTAACCTGTTGCCT (site GAAGCCGCTAG)	0.315
GAAGACGCTTGGGTTCTAACCTGTTGCCT (site GAAGGCGCTAG)	0
GAAGACGCTTGGGTTCTAACCTGTTGCCT (site GAAGTCGCTAG)	0.126
GAAGGCGCTTGGGTTCTAACCTGTTGCCT (site GAAGACGCTAG)	0.187
GAAGGCGCTTGGGTTCTAACCTGTTGCCT (site GAAGCCGCTAG)	0.306
GAAGGCGCTTGGGTTCTAACCTGTTGCCT (site GAAGGCGCTAG)	1.81
GAAGGCGCTTGGGTTCTAACCTGTTGCCT (site GAAGTCGCTAG)	0.0553
GAAGTCCCTTGGGTTCTAACCTGTTGCCT (site AAAGTCCCTAG)	0.558
GAAGTCCCTTGGGTTCTAACCTGTTGCCT (site CAAGTCCCTAG)	0.848
GAAGTCCCTTGGGTTCTAACCTGTTGCCT (site GAAGTCCCTAG)	1.82
GAAGTCCCTTGGGTTCTAACCTGTTGCCT (site TAAGTCCCTAG)	1.22
GAAGTGCCTTGGGTTCTAACCTGTTGCCT (site GAAGAGCCTAG)	0.272
GAAGTGCCTTGGGTTCTAACCTGTTGCCT (site GAAGCGCCTAG)	0.0713
GAAGTGCCTTGGGTTCTAACCTGTTGCCT (site GAAGGGCCTAG)	0.195
GAAGTGCCTTGGGTTCTAACCTGTTGCCT (site GAAGTGCCTAG)	1.92

Sequence	recombinant barcode read abundance (log10)
GAATCCTCTTGGGTTCTAACCTGTTGCCT (site AAATCCTCTAG)	0.145
GAATCCTCTTGGGTTCTAACCTGTTGCCT (site CAATCCTCTAG)	0.531
GAATCCTCTTGGGTTCTAACCTGTTGCCT (site GAATCCTCTAG)	2.06
GAATCCTCTTGGGTTCTAACCTGTTGCCT (site TAATCCTCTAG)	0.483
GAATGAGCTTGGGTTCTAACCTGTTGCCT (site CTCACGACTCT)	0.014
GAATGAGCTTGGGTTCTAACCTGTTGCCT (site GAATGAGCTAG)	1.43
GACAAGTCTTGGGTTCTAACCTGTTGCCT (site GAAACGTCTAG)	0.173
GACAAGTCTTGGGTTCTAACCTGTTGCCT (site GACAAGTCTAG)	1.14
GACACAACTTGGGTTCTAACCTGTTGCCT (site GACACAACTAG)	0
GACACAACTTGGGTTCTAACCTGTTGCCT (site GACCCATCTAG)	0.338
GACACGCCTTGGGTTCTAACCTGTTGCAT (site GACACGCCTAA)	0.0135
GACACGCCTTGGGTTCTAACCTGTTGCAT (site GACACGCCTAC)	0.326
GACACGCCTTGGGTTCTAACCTGTTGCAT (site GACACGCCTAG)	0.976
GACACGCCTTGGGTTCTAACCTGTTGCAT (site GACACGCCTAT)	0.189
GACAGGCCTTGGGTTCTAACCTGTTGCCT (site CACGGGCCTAG)	0.041
GACAGGCCTTGGGTTCTAACCTGTTGCCT (site GACAGGCCTAG)	0.627
GACATTCCTTGGGTTCTAACCTGTTGCCT (site AACATTCCTAG)	0.375
GACATTCCTTGGGTTCTAACCTGTTGCCT (site CACATTCCTAG)	0.113
GACATTCCTTGGGTTCTAACCTGTTGCCT (site GACATTCCTAG)	0.131
GACATTCCTTGGGTTCTAACCTGTTGCCT (site TACATTCCTAG)	0.0381
